Laboratory results taken from the supplement of paper PMC6045584.
± gives the standard deviation of the averaged measurements.

Experiments:
[1] = compound: CCc1cc(Nc2nccc(-c3c(-c4ccc(OC)c(C(=O)Nc5c(F)cccc5F)c4)nc4ccccn34)n2)c(OC)cc1N1CCC(N2CCN(S(C)(=O)=O)CC2)CC1; test: surviving fraction relative to DMSO-only wells; higher = less growth inhibition; settings: exposure time: 5 days
Procedure, shortened: (§1)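 Inhibitors were tested at 0.5, 1, 5, 10, 50, 100, 500 and 1000 nM, applied continuously for five days beginning 24 hours after log-phase tumour cells were seeded at 250–500 per well in 384-well plates. CellTiter-Glo luminescence served as the viability measure, expressed as surviving fraction against the median of DMSO-only wells. Each line, screened three times, was kept only with replicate Pearson r >0.7 and median Z' >0.3.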

[2] = compound: C=CCn1c(=O)c2cnc(Nc3ccc(N4CCN(C)CC4)cc3)nc2n1-c1cccc(C(C)(C)O)n1 [MK-1775]; test: as above; settings: exposure time: 5 days
Procedure, shortened: as §1

Test System	surviving fraction ([1]; 0.5 nM)	surviving fraction ([1]; 1 nM)	surviving fraction ([1]; 5 nM)	surviving fraction ([1]; 10 nM)	surviving fraction ([1]; 50 nM)	surviving fraction ([1]; 100 nM)	surviving fraction ([1]; 500 nM)	surviving fraction ([1]; 1000 nM)	surviving fraction ([2]; 0.5 nM)	surviving fraction ([2]; 1 nM)	surviving fraction ([2]; 5 nM)	surviving fraction ([2]; 10 nM)	surviving fraction ([2]; 50 nM)	surviving fraction ([2]; 100 nM)	surviving fraction ([2]; 500 nM)	surviving fraction ([2]; 1000 nM)
MCF7 BREAST	0.857 ± 0.036	0.905 ± 0.05	0.8677 ± 0.0068	0.874 ± 0.059	0.876 ± 0.013	0.897 ± 0.05	0.844 ± 0.027	0.769 ± 0.027	0.886 ± 0.021	0.894 ± 0.013	0.864 ± 0.0098	0.873 ± 0.042	0.869 ± 0.052	0.856 ± 0.028	0.736 ± 0.014	0.602 ± 0.035
SUM44 BREAST	1.07 ± 0.041	1.04 ± 0.015	1.06 ± 0.037	1.07 ± 0.023	1.07 ± 0.062	1.155 ± 0.0075	0.9687 ± 0.0055	0.994 ± 0.034	1.043 ± 0.0078	1.08 ± 0.034	1.04 ± 0.023	1.07 ± 0.017	0.979 ± 0.017	0.561 ± 0.014	0.26 ± 0.0095	0.254 ± 0.01
SIHA CERVIX	1.01 ± 0.019	1.04 ± 0.071	1.06 ± 0.055	1.11 ± 0.046	1.05 ± 0.084	1.18 ± 0.053	1.02 ± 0.037	1.09 ± 0.034	1.08 ± 0.03	1.04 ± 0.054	1.09 ± 0.066	1.08 ± 0.039	1.17 ± 0.085	1.16 ± 0.057	0.277 ± 0.049	0.0987 ± 0.013
KPD BONE	0.907 ± 0.066	0.947 ± 0.071	1 ± 0.021	1.03 ± 0.062	0.989 ± 0.021	1.049 ± 0.0079	0.89 ± 0.081	0.849 ± 0.036	0.945 ± 0.12	0.91 ± 0.02	0.971 ± 0.029	0.949 ± 0.031	0.954 ± 0.034	0.808 ± 0.039	0.293 ± 0.0046	0.175 ± 0.009
HUO3N1 BONE	0.94 ± 0.044	0.986 ± 0.032	1 ± 0.028	1.05 ± 0.06	1.01 ± 0.011	0.995 ± 0.052	0.947 ± 0.031	0.908 ± 0.024	0.979 ± 0.036	0.941 ± 0.032	1 ± 0.034	1.01 ± 0.039	0.995 ± 0.02	0.843 ± 0.041	0.348 ± 0.014	0.204 ± 0.015
YAMATO SYNOVIAL	1.32 ± 0.085	1.34 ± 0.1	1.44 ± 0.085	1.28 ± 0.023	1.36 ± 0.066	1.42 ± 0.1	1.2 ± 0.19	0.873 ± 0.091	1.31 ± 0.14	1.29 ± 0.064	1.43 ± 0.074	1.2 ± 0.093	1.27 ± 0.12	0.972 ± 0.036	0.463 ± 0.031	0.424 ± 0.018
ASKA SYNOVIAL	1.16 ± 0.063	1.17 ± 0.057	1.27 ± 0.088	1.16 ± 0.1	1.19 ± 0.017	1.2 ± 0.03	1.18 ± 0.03	1.04 ± 0.094	0.946 ± 0.032	1.02 ± 0.1	1.1 ± 0.03	1.02 ± 0.023	0.405 ± 0.0092	0.406 ± 0.012	0.295 ± 0.019	0.37 ± 0.015
MDAMB436 BREAST	1.01 ± 0.065	0.997 ± 0.064	0.933 ± 0.063	0.965 ± 0.041	0.961 ± 0.11	0.967 ± 0.071	1.04 ± 0.07	0.887 ± 0.11	0.978 ± 0.045	0.969 ± 0.028	0.948 ± 0.031	0.902 ± 0.081	0.79 ± 0.073	0.66 ± 0.023	0.312 ± 0.013	0.317 ± 0.021
A549 LUNG	0.954 ± 0.022	0.994 ± 0.045	0.995 ± 0.032	1.02 ± 0.033	0.983 ± 0.029	1.04 ± 0.036	1.01 ± 0.042	1.01 ± 0.034	1.02 ± 0.051	0.985 ± 0.059	0.995 ± 0.057	0.998 ± 0.032	1.05 ± 0.037	1.08 ± 0.047	0.816 ± 0.02	0.38 ± 0.011
PCI30 HEADNECK	0.889 ± 0.028	0.961 ± 0.15	1 ± 0.064	1.04 ± 0.045	0.947 ± 0.054	1.07 ± 0.032	0.989 ± 0.065	0.979 ± 0.065	0.926 ± 0.1	0.937 ± 0.054	1.03 ± 0.036	1.05 ± 0.16	0.884 ± 0.069	0.745 ± 0.021	0.195 ± 0.02	0.137 ± 0.0085
